In US5807535A, “Metal complexes of hydroxyaryl containing aminocarboxylic acid chelating agents” (Australian Nuclear Science & Technology Organisation, priority 1992, dated 1998):
Where two headings read alike, the source gives them in different places.

Columns and labels:
[1] = Biodistribution of 99mTc complexes in rats; type: in vivo, Australian Albino Wistar Rats; details: rats; for tissue uptake at 0.5 min / tissue uptake at 1 min / tissue uptake at 0.05 h / tissue uptake at 5 min / tissue uptake at 10 min: rat; for tissue uptake at 0.5 min: 30 sec
Outline: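 Chelators were dissolved in basic saline, brought to about pH 6 with HCl, and reduced with excess stannous chloride before one equivalent volume of sodium 99mTcO4 (10-50 mCi/ml) was added, giving roughly 1 mg/ml chelator. Labelling efficacy was checked by ITLC-SG. Complexes were diluted in saline to 15 μCi/100 μl for rat biodistribution, with tissue uptake expressed as %ID/g.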

[2] = Biodistribution of 67Ga complexes in mice; type: in vivo, balb/c mice
Outline: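 Ligand labelled with 67Ga citrate at pH 12, 40 °C for 40 min, diluted in saline and filter-sterilised. Balb/c mice given ~3.7×10^5 Bq intravenously via tail vein; five animals sacrificed at each of six time points.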

[3] = blood, read-out: biodistribution blood
[4] = bone, read-out: biodistribution bone
[5] = brain, read-out: biodistribution brain
[6] = eyes, read-out: biodistribution eyes
[7] = heart, read-out: biodistribution heart
[8] = kidneys, read-out: biodistribution kidneys
[9] = liver, read-out: biodistribution liver
[10] = lungs, read-out: biodistribution lungs
[11] = muscle, read-out: biodistribution muscle
[12] = pancreas, read-out: biodistribution pancreas
[13] = skin, read-out: biodistribution skin
[14] = spleen, read-out: biodistribution spleen
[15] = stomach, read-out: biodistribution stomach
[16] = tail, read-out: biodistribution tail
[17] = thymus, read-out: biodistribution thymus
[18] = thyroid, read-out: biodistribution thyroid
[19] = total git, read-out: biodistribution tot GIT

SMILES: O=C(O)CN(CCN(CC(=O)O)CC(=O)Nc1ccccc1O)CC(=O)Nc1ccccc1O [Compound 1]
- tissue uptake at 0.5 min [1, 3]: 1.93 %ID/g
- tissue uptake at 1 min [1, 3]: 1.71 %ID/g
- tissue uptake at 0.05 h ([1]; blood, 3 minutes, selected data, read-out: Blood): 1.16 %ID/g
- tissue uptake at 5 min [1, 3]: 0.83 %ID/g
- tissue uptake at 10 min [1, 3]: 0.71 %ID/g
- tissue uptake at 0.5 min [1, 4]: 0.31 %ID/g
- tissue uptake at 1 min [1, 4]: 0.32 %ID/g
- tissue uptake at 0.05 h ([1]; bone, 3 min, read-out: biodistribution bone): 0.26 %ID/g
- tissue uptake at 5 min [1, 4]: 0.25 %ID/g
- tissue uptake at 10 min [1, 4]: 0.19 %ID/g
- tissue uptake at 0.5 min [1, 5]: 0.14 %ID/g
- tissue uptake at 1 min [1, 5]: 0.09 %ID/g
- tissue uptake at 0.05 h ([1]; brain, 3 min, read-out: biodistribution brain): 0.06 %ID/g
- tissue uptake at 5 min [1, 5]: 0.05 %ID/g
- tissue uptake at 10 min [1, 5]: 0.04 %ID/g
- tissue uptake at 0.5 min [1, 6]: 0.19 %ID/g
- tissue uptake at 1 min [1, 6]: 0.17 %ID/g
- tissue uptake at 0.05 h ([1]; eyes, 3 min, read-out: biodistribution eyes): 0.18 %ID/g
- tissue uptake at 5 min [1, 6]: 0.17 %ID/g
- tissue uptake at 10 min [1, 6]: 0.13 %ID/g
- tissue uptake at 0.5 min [1, 7]: 0.75 %ID/g
- tissue uptake at 1 min [1, 7]: 0.67 %ID/g
- tissue uptake at 0.05 h ([1]; heart, 3 min, read-out: biodistribution heart): 0.46 %ID/g
- tissue uptake at 5 min [1, 7]: 0.33 %ID/g
- tissue uptake at 10 min [1, 7]: 0.27 %ID/g
- tissue uptake at 0.05 h ([1]; kidney, 3 minutes, selected data, read-out: Kidney): 4.12 %ID/g
- tissue uptake at 0.5 min [1, 8]: 6.73 %ID/g
- tissue uptake at 1 min [1, 8]: 6.55 %ID/g
- tissue uptake at 0.05 h ([1]; kidneys, 3 min, read-out: biodistribution kidneys): 4.12 %ID/g
- tissue uptake at 5 min [1, 8]: 2.87 %ID/g
- tissue uptake at 10 min [1, 8]: 2.72 %ID/g
- tissue uptake at 0.5 min [1, 9]: 1.73 %ID/g
- tissue uptake at 1 min [1, 9]: 2.01 %ID/g
- tissue uptake at 0.05 h ([1]; liver, 3 minutes, selected data, read-out: Liver): 1.54 %ID/g
- tissue uptake at 5 min [1, 9]: 1.34 %ID/g
- tissue uptake at 10 min [1, 9]: 0.76 %ID/g
- tissue uptake at 0.5 min [1, 10]: 1.15 %ID/g
- tissue uptake at 1 min [1, 10]: 1.13 %ID/g
- tissue uptake at 0.05 h ([1]; lungs, 3 min, read-out: biodistribution lungs): 0.8 %ID/g
- tissue uptake at 5 min [1, 10]: 0.54 %ID/g
- tissue uptake at 10 min [1, 10]: 0.46 %ID/g
- tissue uptake at 0.5 min [1, 11]: 0.28 %ID/g
- tissue uptake at 1 min [1, 11]: 0.27 %ID/g
- tissue uptake at 0.05 h ([1]; muscle, 3 min, read-out: biodistribution muscle): 0.26 %ID/g
- tissue uptake at 5 min [1, 11]: 0.27 %ID/g
- tissue uptake at 10 min [1, 11]: 0.15 %ID/g
- tissue uptake at 0.5 min [1, 12]: 0.49 %ID/g
- tissue uptake at 1 min [1, 12]: 0.51 %ID/g
- tissue uptake at 0.05 h ([1]; pancreas, 3 min, read-out: biodistribution pancreas): 0.44 %ID/g
- tissue uptake at 5 min [1, 12]: 0.44 %ID/g
- tissue uptake at 10 min [1, 12]: 0.3 %ID/g
- tissue uptake at 0.5 min [1, 13]: 0.37 %ID/g
- tissue uptake at 1 min [1, 13]: 0.43 %ID/g
- tissue uptake at 0.05 h ([1]; skin, 3 min, read-out: biodistribution skin): 0.49 %ID/g
- tissue uptake at 5 min [1, 13]: 0.53 %ID/g
- tissue uptake at 10 min [1, 13]: 0.4 %ID/g
- tissue uptake at 0.5 min [1, 14]: 0.53 %ID/g
- tissue uptake at 1 min [1, 14]: 0.42 %ID/g
- tissue uptake at 0.05 h ([1]; spleen, 3 min, read-out: biodistribution spleen): 0.26 %ID/g
- tissue uptake at 5 min [1, 14]: 0.2 %ID/g
- tissue uptake at 10 min [1, 14]: 0.15 %ID/g
- tissue uptake at 0.5 min [1, 15]: 0.14 %ID/g
- tissue uptake at 1 min [1, 15]: 0.28 %ID/g
- tissue uptake at 0.05 h ([1]; stomach, 3 min, read-out: biodistribution stomach): 0.32 %ID/g
- tissue uptake at 5 min [1, 15]: 0.11 %ID/g
- tissue uptake at 10 min [1, 15]: 0.12 %ID/g
- tissue uptake at 0.5 min [1, 16]: 0.68 %ID/g
- tissue uptake at 1 min [1, 16]: 0.56 %ID/g
- tissue uptake at 0.05 h ([1]; tail, 3 min, read-out: biodistribution tail): 0.8 %ID/g
- tissue uptake at 5 min [1, 16]: 0.73 %ID/g
- tissue uptake at 10 min [1, 16]: 0.83 %ID/g
- tissue uptake at 0.5 min [1, 17]: 0.38 %ID/g
- tissue uptake at 1 min [1, 17]: 0.35 %ID/g
- tissue uptake at 0.05 h ([1]; thymus, 3 min, read-out: biodistribution thymus): 0.27 %ID/g
- tissue uptake at 5 min [1, 17]: 0.19 %ID/g
- tissue uptake at 10 min [1, 17]: 0.14 %ID/g
- tissue uptake at 0.5 min [1, 18]: 1.42 %ID/g
- tissue uptake at 1 min [1, 18]: 1.15 %ID/g
- tissue uptake at 0.05 h ([1]; thyroid, 3 min, read-out: biodistribution thyroid): 1.17 %ID/g
- tissue uptake at 5 min [1, 18]: 0.59 %ID/g
- tissue uptake at 10 min [1, 18]: 0.4 %ID/g
- tissue uptake at 0.5 min [1, 19]: 0.27 %ID/g
- tissue uptake at 1 min [1, 19]: 0.34 %ID/g
- tissue uptake at 0.05 h ([1]; total git, 3 min, read-out: biodistribution tot GIT): 0.59 %ID/g
- tissue uptake at 5 min [1, 19]: 0.79 %ID/g
- tissue uptake at 10 min [1, 19]: 1.22 %ID/g
- biodistribution blood ([1]; 3 min): 1.16 % Injected dose per gram
- biodistribution liver ([1]; 3 min): 1.54 % Injected dose per gram
- biodistribution bone ([2]; 1 min): 5.07 % ID
- biodistribution kidney ([2]; 1 min): 9.28 % ID
- biodistribution liver ([2]; 1 min): 15.45 % ID
- biodistribution muscle ([2]; 1 min): 22.75 % ID
- biodistribution skin ([2]; 1 min): 11.72 % ID
- biodistribution spleen ([2]; 1 min): 0.29 % ID
- biodistribution bone ([2]; 3 min): 3.30 % ID
- biodistribution kidney ([2]; 3 min): 5.26 % ID
- biodistribution liver ([2]; 3 min): 24.21 % ID
- biodistribution muscle ([2]; 3 min): 12.70 % ID
- biodistribution skin ([2]; 3 min): 13.76 % ID
- biodistribution spleen ([2]; 3 min): 0.14 % ID
- biodistribution bone ([2]; 5 min): 2.83 % ID
- biodistribution kidney ([2]; 5 min): 4.37 % ID
- biodistribution liver ([2]; 5 min): 25.79 % ID
- biodistribution muscle ([2]; 5 min): 12.14 % ID
- biodistribution skin ([2]; 5 min): 13.02 % ID
- biodistribution spleen ([2]; 5 min): 0.1 % ID
- biodistribution bone ([2]; 10 min): 2.20 % ID
- biodistribution kidney ([2]; 10 min): 1.91 % ID
- biodistribution liver ([2]; 10 min): 22.77 % ID
- biodistribution muscle ([2]; 10 min): 26.13 % ID
- biodistribution skin ([2]; 10 min): 8.47 % ID
- biodistribution spleen ([2]; 10 min): 0.06 % ID
- biodistribution bone ([2]; 30 min): 0.50 % ID
- biodistribution kidney ([2]; 30 min): 0.57 % ID
- biodistribution liver ([2]; 30 min): 10.11 % ID
- biodistribution muscle ([2]; 30 min): 1.80 % ID
- biodistribution skin ([2]; 30 min): 1.56 % ID
- biodistribution spleen ([2]; 30 min): 0.01 % ID
- biodistribution kidney ([2]; 120 min): 0.05 % ID
- biodistribution liver ([2]; 120 min): 0.88 % ID
- biodistribution muscle ([2]; 120 min): 0.48 % ID
- biodistribution skin ([2]; 120 min): 0.24 % ID
- biodistribution spleen ([2]; 120 min): 0.01 % ID
